The text below walks through data of PubChem BioAssay AID179 (DTP/NCI, 2004).

The source made the active and inactive calls.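 Rule for the calls: active = compounds giving half or more protection of infected cells from virus-caused growth loss, again on retest; inactive = the rest.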

The subject of the experiment is CEM cells HIV-1 protection, formazan growth assay. Description: NCI AIDS Antiviral Assay. Conditions: for IC50: measured here: growth of uninfected CEM cells. The procedure, abridged: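 Human CEM cells, uninfected and HIV-1-infected, exposed to five drug concentrations; growth measured by soluble formazan assay and scored as percent protection from infection, with protecting compounds retested.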

Regarding `COC(=O)c1sc2nc(Nc3ccccc3)c(=Nc3ccccc3)sc2c1C`, the EC50 is greater than 200 µM and the IC50 was greater than 200 µM.
With `C=CCOC(=O)Cn1cc(C)c(=O)[nH]c1=O`, the EC50 is greater than 200 µM and the half-maximal inhibitory concentration (IC50) was greater than 200 µM.
`Nc1ccccc1C(=O)C(Br)C(Br)c1ccc2c(c1)OCO2` (stereo unspecified): the EC50 was greater than 43.7 µM and the IC50 came to 23.4 µM.
In the case of `CCOC(=O)/C(=C/N1C(=O)/C(=C/c2cccc([N+](=O)[O-])c2)SC1=S)C(=O)c1ccccc1`, the EC50 was greater than 200 µM and the IC50 was 18.6 µM.
Take `O=c1cc(NNc2ccccc2F)[nH]c(=O)[nH]1`: the EC50 was greater than 200 µM and the half-maximal inhibitory concentration (IC50) is 1.78 µM.
The like results for `C=CCNC(=S)Nc1ccc(Cl)cc1` were, in that order, greater than 200 µM and 120 µM.
Turning to `Cn1c(N=[N+]=[N-])cc(=O)n(C)c1=O`, the outcome was inactive.
Consider `CCOC(CCc1c(C)nc(NC(C)=O)[nH]c1=O)OCC`, for which the EC50 was greater than 200 µM and the IC50 was greater than 200 µM.
As for `O=C1c2ccccc2C(=O)N1CCSCC(CO)SCCN1C(=O)c2ccccc2C1=O` (stereo unspecified), the EC50 was 191 µM and the 50% inhibitory concentration (IC50) is greater than 200 µM.
Take `CC(C)OP(=O)(OC(C)C)c1ncn(-c2ccc([N+](=O)[O-])cc2)n1`: the EC50 was greater than 513 µM and the IC50 worked out at 468 µM.
In the case of `COC(=O)C1C/C(=C/N(C)C)C(=S)N1` (stereo unspecified), the EC50 was greater than 200 µM and the IC50 was greater than 200 µM.
As for `CC(C)(C)C1CCC2c3c([nH]c4ncccc34)C3C(=O)N(c4ccccc4)C(=O)C3C2C1` (stereo unspecified), the EC50 was greater than 1.78 µM and the IC50 was greater than 1.78 µM.
On to `NC(=S)N/N=C/c1cc(=O)c2cc(Cl)ccc2o1`, for which the EC50 was greater than 66.1 µM and the IC50 was greater than 66.1 µM.
For the compound `COc1ccccc1NC(=O)/C(=C\n1c(=S)[nH]c2ccc([N+](=O)[O-])cc21)C(C)=O`, the EC50 was greater than 200 µM and the half-inhibitory concentration (IC50) was 112 µM.
The like results for `O=C1/C(=C/c2ccc(F)cc2)Cc2ccccc21` were, in that order, greater than 30.2 µM and greater than 30.2 µM.
The like results for `Fc1nc(F)nc(-c2c3ccccc3c3n2CCS3)n1` were, in that order, greater than 25.1 µM and greater than 25.1 µM.
Regarding `CCCCCCCCCCCCC(Br)C(=O)NCC(N)=O` (stereo unspecified), the result was inactive.
`CCc1oc2ccccc2c1C(=O)c1cc(Br)c(O)c(Br)c1`: the EC50 was greater than 200 µM and the IC50 amounted to 34.7 µM.
As for `COC(=O)C(=O)C(C(=O)C(=O)Nc1ccc(Cl)cc1C)c1nc2ccc(C(=O)c3ccccc3)cc2[nH]c1=O` (stereo unspecified), the outcome was inactive.
As to `CC1(C)Cc2ccccc2C(C)(Cl)C(=O)N1` (stereo unspecified), the EC50 is 191 µM and the half-maximal inhibitory concentration (IC50) was greater than 200 µM.
The like results for `Cc1cc(S(=O)(=O)Nc2nc(N)n(-c3ccccc3)n2)c(S)cc1Cl` were, in that order, 129 µM and 468 µM.
The like results for `CCOC(=O)c1c(SC(=O)C(C)(C)Oc2ccc(Cl)cc2)n(-c2ccccc2)c(=S)n(-c2ccccc2)c1=O` were, in that order, greater than 200 µM and 9.55 µM.
In the case of `COC(=O)C1(Cc2ccc3c(c2)CCC3)Cc2ccc3c(c2C1=O)CCC3` (stereo unspecified), the EC50 is greater than 20 µM and the IC50 worked out at 9.55 µM.
For `COC1CC2C3/C(=N/Nc4ccc([N+](=O)[O-])cc4[N+](=O)[O-])CCC2(C)C3C1` (stereo unspecified), the outcome was inactive.
Turning to `NCCN(CCN)/[N+]([O-])=N/O`, the EC50 was greater than 200 µM and the half-inhibitory concentration (IC50) is greater than 200 µM.
As to `Brc1cccc(C2ON=C(c3ccccc3)N2C23CC4CC(CC(C4)C2)C3)c1` (stereo unspecified), the EC50 is greater than 200 µM and the IC50 was greater than 200 µM.
Consider `COC(C)(C)C1(O)CC[C@@H](C)CC1=O` (stereo partly specified), for which the EC50 was greater than 100 µM and the IC50 is greater than 100 µM.
As to `CC(=O)C(C)[P+](c1ccccc1)(c1ccccc1)c1ccccc1` (stereo unspecified), the EC50 was greater than 200 µM and the IC50 is 39.8 µM.
On to `O=C(O)c1ccc([N+](=O)[O-])c2c(=O)c3ccccc3[nH]c12`, for which the outcome was inactive.
Take `CC(=O)N(C(C)=O)c1cc2c3c(c1)CCCN3CCC2`: the EC50 is greater than 200 µM and the IC50 came out at 182 µM.
On to `CCC[C@H]1[C@H](CCC)[C@@]2(OC(=O)C3=C2CCC=C3)[C@]12OC(=O)C1=C2CCC=C1`, for which the EC50 was greater than 107 µM and the half-maximal inhibitory concentration (IC50) turned out to be 20 µM.
In the case of `Cc1nc(C)c(C(=O)NNC(N)=S)cc1C(=O)NNC(N)=S`, the EC50 is greater than 200 µM and the IC50 is greater than 200 µM.
Regarding `C=CC(=O)N1C/C(=C\c2ccc(F)cc2)C(=O)/C(=C/c2ccc(F)cc2)C1`, the EC50 is greater than 0.2 µM and the IC50 was 0.162 µM.
Take `C#CCNCC(=O)O`: the EC50 was 46.8 µM and the IC50 was greater than 200 µM.
The like results for `CNC(=O)N(C)COC` were, in that order, greater than 759 µM and 115 µM.
The like results for `CN(C)c1ccc(C(=S)c2ccc(N(C)C)cc2)cc1` were, in that order, greater than 200 µM and 0.741 µM.
The like results for `CN(Cc1cnc2nc(N)nc(N)c2n1)c1ccc(C(=O)NC(CCC(=O)NC(P(=O)(O)O)P(=O)(O)O)C(=O)O)cc1` (stereo unspecified) were, in that order, greater than 200 µM and 11.2 µM.
Consider `CNS(=O)(=O)c1c(N)ncn1C`, for which the EC50 is greater than 1100 µM and the IC50 was greater than 1100 µM.
Take `CC(C1=C(CCN(C)C)Cc2ccccc21)c1ccccn1` (stereo unspecified): the EC50 was greater than 200 µM and the half-inhibitory concentration (IC50) is 155 µM.
Consider `N#CC(C#N)=Cc1ccccc1[N+](=O)[O-]`, for which the EC50 is greater than 302 µM and the IC50 worked out at 15.1 µM.
The like results for `O=C(/C=C/c1c(O)ccc2ccccc12)c1ccccc1` were, in that order, greater than 182 µM and greater than 100 µM.
Take `Cc1ccc(NC(=O)NC(=O)c2ccc([N+](=O)[O-])cc2[N+](=O)[O-])cc1Oc1ncc(Cl)cn1`: the outcome was inactive.
For `CC(=O)OCC1OC(n2cc([N+](=O)[O-])c(=O)[nH]c2=O)C(OC(C)=O)C(OC(C)=O)C1OC(C)=O` (stereo unspecified), the EC50 was greater than 513 µM and the IC50 was greater than 513 µM.
For the compound `Oc1cc(Cc2ccccc2)c(Cc2ccccc2)cc1O`, the EC50 was greater than 200 µM and the IC50 was 34.7 µM.
Take `O=C(Nc1ccc(N=C(Nc2ccccc2)c2ccccc2)cc1)c1ccc(C(=O)Nc2ccc(N=C(Nc3ccccc3)c3ccccc3)cc2)cc1`: the EC50 is greater than 200 µM and the IC50 is 18.2 µM.
For `O=C(O)C1COCN1C(=O)c1cc2ccccc2cc1SSc1cc2ccccc2cc1C(=O)N1COCC1C(=O)O` (stereo unspecified), the EC50 is greater than 200 µM and the half-inhibitory concentration (IC50) came out at 93.3 µM.
In the case of `O/C(=C\c1nc2ccccc2nc1NC12CC3CC(CC(C3)C1)C2)c1ccc(Br)cc1`, the EC50 was greater than 200 µM and the IC50 is greater than 200 µM.
For the compound `CN(C)CCNc1nc(-c2cccs2)cc(-c2cccs2)n1`, the EC50 is greater than 759 µM and the IC50 is 6.46 µM.
In the case of `NC(=O)CSSCC(N)=O`, the EC50 is 21.4 µM and the half-maximal inhibitory concentration (IC50) came out at 70.8 µM.
The like results for `CC(=O)NS(=O)(=O)c1ccc(NC(=O)c2ccccc2SC(=O)c2ccccc2)cc1` were, in that order, 15.1 µM and 117 µM.
As for `CC(C)C1=CC23CCC4C(C)(C(=O)O)CCCC4(C)C2CC1C1C(=O)N(CCCCCCN2C(=O)C4C5CC6C7(C)CCCC(C)(C(=O)O)C7CCC6(C=C5C(C)C)C4C2=O)C(=O)C13` (stereo unspecified), the EC50 was greater than 269 µM and the concentration for half-maximal inhibition (IC50) is 7.41 µM.
The like results for `Cc1ccc(N2C(=O)C=C(C3=C(O)C(=O)N(c4ccc(C)cc4)C3=O)C2=O)cc1` were, in that order, 135 µM and greater than 200 µM.
The like results for `COc1cc(N)c2c(c1)SC(C)C(=O)N2` (stereo unspecified) were, in that order, greater than 200 µM and 186 µM.
Consider `N#Cc1ccc(Sc2ccccc2)cc1C#N`, for which the EC50 was greater than 110 µM and the IC50 is greater than 110 µM.
`CC1CCC2CC(=O)NC(=O)CC12` (stereo unspecified): the EC50 was greater than 457 µM and the IC50 was greater than 457 µM.
`CCOP(=O)(Nc1ccc(-c2ccc(N)cc2)cc1)OCC`: the EC50 was greater than 200 µM and the IC50 was determined as 170 µM.
The like results for `CCCCOC/N=C(/N)NC#N` were, in that order, greater than 525 µM and greater than 525 µM.
The like results for `O=C1c2cscc2C(=O)c2cscc21` were, in that order, greater than 2 µM and 0.339 µM.
For `Cn1c(=O)cc(CNc2ccc(-c3ccccc3)cc2)c2ccccc21`, the EC50 is greater than 200 µM and the IC50 came to 75.9 µM.
Turning to `CCCNCCOc1nc(Cl)c(Cl)cc1Cl`, the EC50 was greater than 200 µM and the IC50 was 126 µM.
For the compound `Cc1c2cc(Br)ccc2nc(CCl)[n+]1[O-]`, the EC50 is greater than 20 µM and the IC50 was 0.977 µM.
The like results for `CC(C)=C1C=C2CC[C@@H]3[C@](C)(CCC[C@@]3(C)C(=O)O)[C@H]2CC1` were, in that order, greater than 200 µM and 105 µM.
The like results for `CC1CCC2C1(C)CCC1C2(C)CCC2(C)C3CC(C)(C)CCC3(C)CCC12C` (stereo unspecified) were, in that order, 93.3 µM and greater than 100 µM.
The like results for `C[C@]12CC[C@@H]3c4ccc(OC(=O)c5ccccc5)cc4CC[C@H]3[C@@H]1CCC2OC(=O)c1cccc2c(=O)c3ccccc3[nH]c12` (stereo partly specified) were, in that order, greater than 151 µM and 7.94 µM.
As for `N#C/C(=C\c1ccccc1)c1cccc(Br)c1`, the EC50 was greater than 200 µM and the IC50 is greater than 200 µM.
With `CCOC(=O)/C(=C\c1ccc2ccccc2c1)P(=O)(OCC)OCC`, the EC50 was greater than 186 µM and the IC50 stood at 5.37 µM.
The like results for `Nc1nccc(NCC2(CO)CC(OCc3ccccc3)C2)n1` (stereo unspecified) were, in that order, greater than 200 µM and greater than 200 µM.
The like results for `O=C(N/C(=C\c1ccc(Cl)cc1)c1nc2ccccc2[nH]1)c1ccccc1` were, in that order, greater than 69.2 µM and 58.9 µM.
For `CSc1c(C#N)c(=O)n(N)c2n[nH]c(C)c12`, the EC50 is greater than 200 µM and the IC50 was greater than 200 µM.
Turning to `C[N+]1(C)CC=C(N2CCOCC2)CC1`, the EC50 was greater than 200 µM and the IC50 is greater than 200 µM.
For the compound `CC(=O)OC1C[C@](C)(O)/C=C/CC(C)/C=C/[C@@]2(C)CCC(C(C)(C)O)C12` (stereo partly specified), the result was inactive.
As to `CCCCCCCCCCCCCCCCc1c(C(=O)OC)nc(NN)[nH]c1=O`, the EC50 is greater than 9.33 µM and the IC50 was greater than 9.33 µM.
As for `COc1ccc(CCc2cc(OC)c(O)c(OC)c2)cc1`, the EC50 was greater than 200 µM and the 50% inhibitory concentration (IC50) was determined as 10.5 µM.
With `S=c1ncc2n[nH]nc2[nH]1`, the EC50 was greater than 200 µM and the IC50 was greater than 200 µM.
